Columns and labels:
Assay in all cases: Aerobic agar-dilution AST of facultative anaerobes (MIC, checkerboard FIC)
Format in all cases: cell-based
Acinetobacter baumannii = Acinetobacter baumannii 919899, read-out: MIC
Pseudomonas aeruginosa = conditions: Pseudomonas aeruginosa, Pseudomonas aeruginosa 945748; read-out: MIC
Enterococcus faecalis = conditions: Enterococcus faecalis
Staphylococcus aureus = system: Staphylococcus aureus; parameters: MIC (Table 10C, head prints neither MIC nor unit): unit not given beside the values; conditions: for MIC: Staphylococcus aureus; for MIC (Table 10C, head prints neither MIC nor unit): strain (MR) 920516, aerobic

Row | SMILES | MIC (Staphylococcus aureus) [µg/mL] | MIC (Staphylococcus aureus; ATCC33591) [µg/mL] | MIC (Table 10C, head prints neither MIC nor unit) (Staphylococcus aureus) | also measured
1 | C[C@@H](O)[C@H]1C(=O)N2C(C(=O)O)=C(S[C@@H]3CN[C@H](C(=O)N(C)C)C3)[C@H](C)[C@H]12 [meropenem] | – | – | – | MIC (Acinetobacter baumannii): > 64 µg/mL; MIC (Pseudomonas aeruginosa): 8 µg/mL
2 | CN[C@H](CC(C)C)C(=O)N[C@H]1C(=O)N[C@@H](CC(N)=O)C(=O)N[C@H]2C(=O)N[C@H]3C(=O)N[C@H](C(=O)N[C@H](C(=O)O)c4cc(O)cc(O)c4-c4cc3ccc4O)[C@H](O)c3ccc(c(Cl)c3)Oc3cc2cc(c3O[C@@H]2O[C@H](CO)[C@@H](O)[C@H](O)[C@H]2O[C@H]2C[C@](C)(N)[C@H](O)[C@H](C)O2)Oc2ccc(cc2Cl)[C@H]1O [vancomycin] | 1 | 2 | – | MIC (Enterococcus faecalis): 1 µg/mL; MIC (Enterococcus faecalis; ATCC51559): > 32 µg/mL
3 | CC(C)c1ccc(Cn2ccc3c4c(N)nc(NC5CC5)nc4ccc32)cc1 [Q] | – | – | 32 | –
4 | CCCCCCCCCCNCCN[C@@]1(C)C[C@H](O[C@H]2[C@H](Oc3c4cc5cc3Oc3ccc(cc3Cl)[C@@H](O)[C@@H](NC(=O)[C@@H](CC(C)C)NC)C(=O)N[C@@H](CC(N)=O)C(=O)N[C@H]5C(=O)N[C@H]3C(=O)N[C@H](C(=O)N[C@H](C(=O)O)c5cc(O)c(CNCP(=O)(O)O)c(O)c5-c5cc3ccc5O)[C@H](O)c3ccc(c(Cl)c3)O4)O[C@H](CO)[C@@H](O)[C@@H]2O)O[C@@H](C)[C@H]1O [telavancin] | 0.25 | 0.125 | – | –
5 | Cc1cc(NS(=O)(=O)c2ccc(N)cc2)no1 [S, sulfamethoxazole] | – | – | >608 | –

Source: patent US20230398101A1, “Co-agents as Therapy Against Anaerobic Pathogens” (priority 2022, published 2023)
